US12161630B2, “Methods to control infection using new generation small molecule growth inhibitors” (priority 2017, dated 2024)

System: S. typhimurium WT
Experiment: Combined antimicrobial study between antibiotics and SMs
Type: cell-based, Salmonella enterica subsp. enterica serovar Typhimurium LT2
Conditions: for MBCAlone (MBC of the antibiotic by itself, no SM): S. typhimurium WT, adjusted M9 minimal broth; for MBCComb4 (MBC of antibiotic in antibiotic+SM4 combination) / SM4R (result of synergy testing, antibiotic+SM4): [SM4] 10 μM; for MBCComb5 (MBC of antibiotic in antibiotic+SM5 combination) / SM5R (result of synergy testing, antibiotic+SM5): [SM5] 25 μM; for effect of the presence of SM on antibiotic MBC: combined with SM1, SM3, SM4 or SM5; for reduction in MBC when combined with SM1: antibiotic combined with SM1
Description: Combined antimicrobial study between antibiotics and small molecules (SMs): The antimicrobial efficacy of several antibiotics commonly used to control Salmonella was studied once combined with the selected four SMs. […] The MBC of each antibiotic were pre-determined as described previously. Bacteria challenged with only SMs or antibiotics at the same concentrations were used to determine the ATB-SM combination effects. […] Plates were incubated in a Sunrise™ Tecan kinetic microplate reader for 12 hrs at 37° C. and the optical density (OD) was measure at 600 nm as described above. After challenging, survival was recorded following plating of the bacterial suspension on agar plate and incubated at 37° C. for 36 hrs. The ATB-SM combination effect was calculated as described in Doern CD, 2014 (12).

SMILES | MBCAlone (MBC of the antibiotic by itself, no SM) [µg/mL] | MBCComb1 (MBC of antibiotic in antibiotic+SM1 combination) ([SM1] 50 μM) [µg/mL] | SM1R (result of synergy testing, antibiotic+SM1) ([SM1] 50 μM) | MBCComb3 (MBC of antibiotic in antibiotic+SM3 combination) ([SM3] 25 μM) [µg/mL] | SM3R (result of synergy testing, antibiotic+SM3) ([SM3] 25 μM) | MBCComb4 (MBC of antibiotic in antibiotic+SM4 combination) [µg/mL] | SM4R (result of synergy testing, antibiotic+SM4) | MBCComb5 (MBC of antibiotic in antibiotic+SM5 combination) [µg/mL] | SM5R (result of synergy testing, antibiotic+SM5) | effect of the presence of SM on antibiotic MBC | reduction in MBC when combined with SM1 | other results
CO/N=C(\C(=O)N[C@@H]1C(=O)N2C(C(=O)O)=C(COC(C)=O)CS[C@H]12)c1csc(N)n1 [Cefotaxime, cefotaxime] | 3.2 | 3.2 | Ind | 3.2 | Ind | 3.2 | Ind | 3.2 | Ind | no effect |  | 
CC[C@H]1OC(=O)[C@H](C)[C@@H](O[C@H]2C[C@@](C)(OC)[C@@H](O)[C@H](C)O2)[C@H](C)[C@@H](O[C@@H]2O[C@H](C)C[C@H](N(C)C)[C@H]2O)[C@](C)(O)C[C@@H](C)C(=O)[C@H](C)[C@@H](O)[C@]1(C)O [Erythromycin, erythromycin] | 200 | 200 | Ind | 200 | Ind | 200 | Ind | 200 | Ind | no effect |  | 
C[C@@H](O)[C@H]1C(=O)N2C(C(=O)O)=C(S[C@@H]3CN[C@H](C(=O)N(C)C)C3)[C@H](C)[C@H]12 [Meropenem, meropenem] | 0.2 |  |  |  |  | 0.2 | Ind | 0.2 | Ind |  | up to 80% | MBCComb1 (MBC of antibiotic in antibiotic+SM1 combination) ([SM1] 5 μM): 0.16 µg/mL; SM1R (result of synergy testing, antibiotic+SM1) ([SM1] 5 μM): Add; MBCComb1 (MBC of antibiotic in antibiotic+SM1 combination) ([SM1] 10 μM): 0.08 µg/mL; SM1R (result of synergy testing, antibiotic+SM1) ([SM1] 10 μM): Add; MBCComb1 (MBC of antibiotic in antibiotic+SM1 combination) ([SM1] 20 μM): 0.04 µg/mL; SM1R (result of synergy testing, antibiotic+SM1) ([SM1] 20 μM): Add; MBCComb3 (MBC of antibiotic in antibiotic+SM3 combination) ([SM3] 15 μM): 0.16 µg/mL; SM3R (result of synergy testing, antibiotic+SM3) ([SM3] 15 μM): Ind; MBCComb3 (MBC of antibiotic in antibiotic+SM3 combination) ([SM3] 20 μM): 0.08 µg/mL; SM3R (result of synergy testing, antibiotic+SM3) ([SM3] 20 μM): Ind
CCn1cc(C(=O)O)c(=O)c2ccc(C)nc21 [Nalidixic Acid, nalidixic acid] | 16 |  |  | 16 | Ind | 16 | Ind | 16 | Ind |  | up to 70% | MBCComb1 (MBC of antibiotic in antibiotic+SM1 combination) ([SM1] 30 μM): 8 µg/mL; SM1R (result of synergy testing, antibiotic+SM1) ([SM1] 30 μM): Ind; MBCComb1 (MBC of antibiotic in antibiotic+SM1 combination) ([SM1] 40 μM): 4.8 µg/mL; SM1R (result of synergy testing, antibiotic+SM1) ([SM1] 40 μM): Ind
